Measured values from paper PMC5858870 (Environmental pollution (Barking, Essex : 1987), 2018).
Read-outs that look alike come from different tables or passages of the source.

Tests used:
[1] = for Whole-body conc D 50 High / Whole-body conc D 50 Med: day 50 (after depuration), wet weight, < = reporting limit; for Whole-body conc D 50 Med: medium dose
[2] = test system: fish; conditions: ref Kim et al. (2007); cited from earlier work
[3] = test system: male fathead minnow; conditions: exposed to 40,000 ng/L (40 ng/mL); ref Niemuth and Klaper, 2015; cited from earlier work
[4] = Apparent half-life during depuration phase; conditions: whole-body, apparent first order
[5] = in vivo; cited from earlier work
[6] = test system: mitochondrial respiration; conditions: ref Schnellmann et al., 1990; Shim et al., 2016; cited from earlier work
[7] = test system: carp; conditions: carp (Catla catla) exposed; ref Muthuviveganandavel et al., 2013; cited from earlier work
[8] = test system: rainbow trout; conditions: relatively low concentrations in the range of ng/mL; ref Ashfield et al., 1998; cited from earlier work
[9] = day 32, high dose, nominal ratio 10×
[10] = day 32, low dose, nominal ratio 0.3×
[11] = day 32, medium dose, nominal ratio 1×
[12] = Chinook salmon (Oncorhynchus tshawytscha), juvenile, in vivo, 32 d
[13] = Chinook salmon (Oncorhynchus tshawytscha), juvenile, in vivo, 50 d

| Molecule | WB conc. factor (lab / field) D 32 High [1, 9] | WB conc. factor (lab / field) D 32 Low [1, 10] | WB conc. factor (lab / field) D 32 Med [1, 11] | WB conc. factor (lab / field) D 50 Med ([1]; day 50, medium dose) | also measured |
| --- | --- | --- | --- | --- | --- |
| CNCCN1C(=O)[C@H](OC(C)=O)[C@H](c2ccc(OC)cc2)Sc2ccccc21 [Desmethyl-diltiazem] | 108 | 4.67 | 9.00 | 9.6 | Whole-body conc D 50 High [1]: 119 ng/g; Whole-body conc D 50 Med [1]: 14.4 ng/g |
| COc1ccc([C@@H]2Sc3ccccc3N(CCN(C)C)C(=O)[C@@H]2OC(C)=O)cc1 [Diltiazem, reference compound] | 63.8 | 10.7 | 6.56 | 2.37 | 96h LC50 [2]: 15 µg/mL |
| CNCCC(Oc1ccc(C(F)(F)F)cc1)c1ccccc1 (centres unmarked) [Fluoxetine, reference compound] | 4.00 | 0.29 | 0.21 | 0.19 |  |
| Clc1ccc(COC(Cn2ccnc2)c2ccc(Cl)cc2Cl)c(Cl)c1 (centres unmarked) [Miconazole, reference compound] | 7.39 | 0.64 |  |  |  |
| O=C(O)C(F)(F)C(F)(F)C(F)(F)C(F)(F)C(F)(F)C(F)(F)C(F)(F)C(F)(F)C(F)(F)F [PFDA] | 39.9 | 1.68 | 2.76 | 2.63 | Whole-body conc D 50 High [1]: 14.4 ng/g; Whole-body conc D 50 Med [1]: 2.05 ng/g; Half life High [4]: 16.2 days; Half life Med ([4]; medium dose): 262 days |
| O=C(O)C(F)(F)C(F)(F)C(F)(F)C(F)(F)C(F)(F)F [PFHxA] |  |  |  |  | Whole-body conc D 50 High [1]: 0.82 ng/g; Whole-body conc D 50 Med [1]: 0.49 ng/g |
| NS(=O)(=O)C(F)(F)C(F)(F)C(F)(F)C(F)(F)C(F)(F)C(F)(F)C(F)(F)C(F)(F)F [PFOSA] |  |  |  |  | WB conc. factor (lab / field) D 32 High [1, 12]: 85.9; WB conc. factor (lab / field) D 32 Low [1, 12]: 2.74; WB conc. factor (lab / field) D 32 Med [1, 12]: 4.15; WB conc. factor (lab / field) D 50 High [1, 13]: 55.9; WB conc. factor (lab / field) D 50 Med [1, 13]: 7.0; Max WB conc field Scul [5]: 2.2 ng/g; Uncoupling of mitochondrial respiration [6]: known uncouplers of mitochondrial respiration |
| O=S(=O)(O)C(F)(F)C(F)(F)C(F)(F)C(F)(F)C(F)(F)C(F)(F)C(F)(F)C(F)(F)F [PFOS] | 4.01 | 0.17 | 0.22 | 0.34 | Whole-body conc D 50 High [1]: 123 ng/g; Whole-body conc D 50 Med [1]: 11.6 ng/g; Half life High [4]: 134 days |
| CN[C@H]1CC[C@@H](c2ccc(Cl)c(Cl)c2)c2ccccc21 [Sertraline, reference compound] | 0.53 |  |  |  |  |
| O=C(Nc1ccc(Cl)cc1)Nc1ccc(Cl)c(Cl)c1 [Triclocarban] | 1.34 |  |  |  |  |
| Oc1cc(Cl)ccc1Oc1ccc(Cl)cc1Cl [Triclosan] |  |  |  |  | Uncoupling of mitochondrial respiration [6]: known uncouplers of mitochondrial respiration |
| CC1(C)C(C=C(Cl)Cl)C1C(=O)OC(C#N)c1cccc(Oc2ccccc2)c1 (centres unmarked) [cypermethrin] |  |  |  |  | Plasma enzymes ALT, AMYL, and acid phosphatase [7]: large reductions |
| nonylphenol |  |  |  |  | Growth in rainbow trout [8]: inhibited growth |
| nonylphenol diethoxylate |  |  |  |  | Growth in rainbow trout [8]: inhibited growth |
| octylphenol |  |  |  |  | Growth in rainbow trout [8]: inhibited growth |

More lines, main results first:

| WB conc. factor (lab / field) D 32 High [1, 9] | WB conc. factor (lab / field) D 32 Low [1, 10] | WB conc. factor (lab / field) D 32 Med [1, 11] | Molecule | WB conc. factor (lab / field) D 50 Med ([1]; day 50, medium dose) | also measured |
| --- | --- | --- | --- | --- | --- |
| 1.41 | 0.19 |  | CN(C)CCC=C1c2ccccc2CCc2ccccc21 [Amitriptyline, reference compound] |  |  |
| 19.5 | 1.15 | 1.12 | CCOC(=O)C1=C(COCCN)NC(C)=C(C(=O)OC)C1c1ccccc1Cl (centres unmarked) [Amlodipine, reference compound] |  |  |
| 17.1 | 1.67 | 1.03 | CC[C@H]1OC(=O)[C@H](C)[C@@H](O[C@H]2C[C@@](C)(OC)[C@@H](O)[C@H](C)O2)[C@H](C)[C@@H](O[C@@H]2O[C@H](C)C[C@H](N(C)C)[C@H]2O)[C@](C)(O)C[C@@H](C)CN(C)[C@H](C)[C@@H](O)[C@]1(C)O [Azithromycin, reference compound] | 1.42 |  |
| 5.37 | 0.67 | 0.43 | CN(C)CCOC(c1ccccc1)c1ccccc1 [Diphen hydramine, reference compound] |  |  |
| 2.57 |  |  | Cc1ccc(C)c(OCCCC(C)(C)C(=O)O)c1 [Gemfibrozil, reference compound] |  |  |
| 1.42 | 0.16 |  | CN(C)C(=N)N=C(N)N [Metformin, reference compound] |  | Growth in male fathead minnow [3]: reduced growth |
| 5.59 | 0.31 | 0.38 | NCCC(Oc1ccc(C(F)(F)F)cc1)c1ccccc1 (centres unmarked) [Norfluoxetine] | 0.52 |  |
